Reference: patent publication US11730759B1, “Sulfasalazine-loaded zinc oxide nanoparticles for the treatment of ulcerative colitis” (priority 2023, dated 2023)

Tested on: ulcerative colitis (UC) rats
Type: in vivo
Settings: sulfasalazine 100 mg/kg P.O., loaded ZnONPs 100 mg/kg P.O. containing 12.2 mg sulfasalazine/kg
Protocol: Forty male albino rats were randomly divided into four groups (n=10 rats), with all groups were treated for 7 days, as follows:
Group 1: Rats received saline daily for 21 consecutive days by rectal catheter and served as the normal control group (negative control).
Group 2: The disease group received 1 ml acetic acid 3% for three days and served as the ulcerative colitis (UC) control group (positive control).
Group 3: In the standard group, rats received free sulfasalazine (100 mg/kg; P.O. i.e., about 20 mg/rat 200 g) after induction of UC by acetic acid 3% as in group 2.
Group 4: The treatment group, where UC rats received the dose of ZnONPs loaded sulfasalazine (100 mg/kg; P.O. of the ZnONPs) containing 12.2 mg sulfasalazine/kg; P.O.
Markers estimated: • Macroscopic examination of colonic mucosa. • Inflammatory mediators such as tumor necrosis factor-α (TNF-α), interleukin 1beta (IL 1B), malondialdehyde (MBA), reduced glutathione (GSH), superoxide dismutase (SOD), caspase-1, and cyclooxygenase-2 (COX2). • Inflammatory mediators are estimated by ELIZA.

Structure (SMILES): O=C(O)c1cc(/N=N/c2ccc(S(=O)(=O)Nc3ccccn3)cc2)ccc1O [sulfasalazine]
- overall effect on ulcerative colitis (inflammatory mediators, healing) relative to other treatments: lower than that observed for Group 4
